Each block holds one compound with its values, some of them ahead of it.
Key:
Human IDO1 = Human IDO1 (Homo sapiens (Human), UniProt P14902); experiment: IDO Kynurenine Assay with Human IDO1/HEK293 Cells; format: cell-based; conditions: HEK293 cells with human IDO1; read-out: HEK human IDO-1 (IC50)
Protocol: IDO Kynurenine Assay with Human IDO1/HEK293 Cells
Human IDO1/HEK293 cells were seeded at 10,000 cells per 50 uL per well with RPMI/phenol red free media contains 10% FBS in a 384-well black wall clear bottom tissue culture plate (Matrix Technologies LLC) 125 nL of certain concentration of compound was then added to each well using ECHO liquid handling systems. The cells were incubated for 20 hours in 37° C. incubator with 5% CO2.
The compound treatments were stopped by adding Trichloroacetic Acid (Sigma-Aldrich) to a final concentration at 0.2%. The cell plate was further incubated at 50° C. for 30 minute. The equal volume supernatant (20 uL) and 0.2% (w/v) Ehrlich reagent (4-dimethylaminobenzaldehyde, Sigma-Aldrich) in glacial acetic acid were mixed in a new clear bottom 384-well plate. This plate was then incubated at room temperature for 30 minute. The absorbance at 490 nm was measured on Envision plate reader.

IDO [1] = biological target: T1, IDO (Homo sapiens (Human), UniProt P14902); experiment: LLE_IDO_ABS_DR (IDO assay, method not described)
IDO [2] = biological target: T1, IDO; experiment: Kynurenine assay in IFN-γ-stimulated Hela cells; format: cell-based; conditions: 20 h, read-out: Hela Kyurenine (IC50)
Outline: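 Kynurenine in supernatant is read at 490 nm after Ehrlich reagent (10 min RT), following TCA stop and 30 min at 50° C hydrolysis. Before that, Hela cells in phenol red-free RPMI/10% FBS were co-treated 20 h at 37° C with 100 ng/mL IFN-γ and compound (30 μM top, 3-fold series to 1.5 nM).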

Chain of Human IDO1 (P14902 whole entry): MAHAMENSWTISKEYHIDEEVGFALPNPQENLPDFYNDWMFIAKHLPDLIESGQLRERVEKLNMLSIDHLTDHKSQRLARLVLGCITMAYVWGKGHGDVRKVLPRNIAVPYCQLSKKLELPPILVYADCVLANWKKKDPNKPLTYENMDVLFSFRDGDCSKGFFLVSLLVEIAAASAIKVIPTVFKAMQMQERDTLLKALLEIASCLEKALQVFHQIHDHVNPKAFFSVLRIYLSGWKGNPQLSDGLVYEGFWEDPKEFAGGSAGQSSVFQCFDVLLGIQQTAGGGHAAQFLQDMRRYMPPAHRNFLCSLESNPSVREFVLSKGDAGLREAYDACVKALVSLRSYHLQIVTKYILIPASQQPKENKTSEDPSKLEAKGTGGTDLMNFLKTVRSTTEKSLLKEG
T1 sequence (P14902 whole entry): as above

SMILES: COc1ccc(-c2ccc(Oc3cccc4c3CCCC4)c(NC(=O)Nc3cccc(C)c3)c2)cc1C(=O)O [Example 116, 4-methoxy-4′-(5,6,7,8-tetrahydronaphthalen-1-yloxy)-3′-(3-m-tolylureido)biphenyl-3-carboxylic acid]
IC50 (Human IDO1): 790 nM
IC50 (IDO [1]): 780 nM
IC50 (IDO [2]): 100 nM

SMILES: COc1ccc(-c2ccc(Oc3cccc(C)c3C)c(NC(=O)Nc3cccc(C)c3)c2)cc1C(=O)O [Example 122, 4′-(2,3-dimethylphenoxy)-4-methoxy-3′-(3-m-tolylureido)biphenyl-3-carboxylic acid]
IC50 (Human IDO1): 660 nM
IC50 (IDO [1]): 250 nM
IC50 (IDO [2]): 80 nM

SMILES: COc1ccc(-c2ccc(Oc3cccc(C)c3C)c(NC(=O)Nc3ccc(C)cc3)c2)cc1C(=O)O [Example 123, 4′-(2,3-dimethylphenoxy)-4-methoxy-3′-(3-p-tolylureido)biphenyl-3-carboxylic acid]
IC50 (Human IDO1): 680 nM
IC50 (IDO [1]): 730 nM
IC50 (IDO [2]): 160 nM

SMILES: COc1ccc(-c2ccc(Oc3ccccc3C3CC3)c(NC(=O)Nc3ccc(C)cc3)c2)cc1C(=O)O [Example 127, 4′-(2-cyclopropylphenoxy)-4-methoxy-3′-(3-p-tolylureido)biphenyl-3-carboxylic acid]
IC50 (Human IDO1): 3290 nM
IC50 (IDO [1]): 2430 nM
IC50 (IDO [2]): 490 nM

SMILES: COc1ccc(-c2ccc(Oc3cccc4ccccc34)c(NC(=O)Nc3ccc(C)cc3)c2)cc1C(=O)O [Example 131, 4-methoxy-4′-(naphthalen-1-yloxy)-3′-(3-p-tolylureido)biphenyl-3-carboxylic acid]
IC50 (Human IDO1): 770 nM
IC50 (IDO [1]): 770 nM
IC50 (IDO [2]): 160 nM

SMILES: COc1ccc(-c2ccc(Oc3cccc4c3CCC4)c(NC(=O)Nc3ccc(C)cc3)c2)cc1C(=O)O [Example 145, 4′-(2,3-dihydro-1H-inden-4-yloxy)-4-methoxy-3′-(3-p-tolylureido)biphenyl-3-carboxylic acid]
IC50 (Human IDO1): 1590 nM
IC50 (IDO [1]): 790 nM
IC50 (IDO [2]): 280 nM

SMILES: COc1ccc(-c2ccc(Oc3ccc4c(c3)CCCC4)c(NC(=O)Nc3ccc(C)cc3)c2)cc1C(=O)O [Example 148, 4-methoxy-4′-(5,6,7,8-tetrahydronaphthalen-2-yloxy)-3′-(3-p-tolylureido)biphenyl-3-carboxylic acid]
IC50 (Human IDO1): 2420 nM
IC50 (IDO [1]): 490 nM
IC50 (IDO [2]): 260 nM

SMILES: COc1ccc(-c2ccc(Oc3cccc4c3CCCC4)c(NC(=O)Nc3ccccc3)c2)cc1C(=O)O [Example 151, 4-methoxy-3′-(3-phenylureido)-4′-(5,6,7,8-tetrahydronaphthalen-1-yloxy)biphenyl-3-carboxylic acid]
IC50 (Human IDO1): 1120 nM
IC50 (IDO [1]): 300 nM
IC50 (IDO [2]): 60 nM

SMILES: COc1ccc(-c2ccc(Oc3cccc4c3CCCC4)c(NC(=O)Nc3ccc(C)c(C)c3)c2)cc1C(=O)O [Example 153, 3′-(3-(3,4-dimethylphenyl)ureido)-4-methoxy-4′-(5,6,7,8-tetrahydronaphthalen-1-yloxy)biphenyl-3-carboxylic acid]
IC50 (Human IDO1): 920 nM
IC50 (IDO [1]): 530 nM
IC50 (IDO [2]): 40 nM

SMILES: Cc1cccc(NC(=O)Nc2cc(-c3cccc(C(=O)O)c3)ccc2Oc2ccccc2C(C)(C)C)c1 [Example 225, 4′-(2-tert-butylphenoxy)-3′-(3-m-tolylureido) biphenyl-3-carboxylic acid]
IC50 (Human IDO1): 7650 nM
IC50 (IDO [1]): 2900 nM
IC50 (IDO [2]): 570 nM

SMILES: Cc1ccc(NC(=O)Nc2cc(-c3cccc(C(=O)O)c3)ccc2Oc2cccc(Cl)c2)cc1 [Example 245, 4′-(3-chlorophenoxy)-3′-(3-p-tolylureido) biphenyl-3-carboxylic acid]
IC50 (Human IDO1): 6580 nM
IC50 (IDO [1]): 2250 nM
IC50 (IDO [2]): 250 nM

SMILES: Cc1ccccc1NC(=O)Nc1cc(-c2cc(F)cc(C(=O)O)c2)ccc1Oc1ccccc1C(C)(C)C [Example 254, 4′-(2-tert-butylphenoxy)-5-fluoro-3′-(3-o-tolylureido) biphenyl-3-carboxylic acid]
IC50 (Human IDO1): 1620 nM
IC50 (IDO [1]): 1160 nM
IC50 (IDO [2]): 350 nM

The next compounds have a lower IC50 (Human IDO1) than those just listed; values first:

IC50 (Human IDO1): 120 nM
IC50 (IDO [1]): 100 nM
IC50 (IDO [2]): 20 nM
SMILES: COc1ccc(-c2ccc(Oc3cccc4c3CCCC4)c(NC(=O)Nc3ccccc3Cl)c2)cc1C(=O)O [Example 114, 3′-(3-(2-chlorophenyl)ureido)-4-methoxy-4′-(5,6,7,8-tetrahydronaphthalen-1-yloxy)biphenyl-3-carboxylic acid]

IC50 (Human IDO1): 240 nM
IC50 (IDO [1]): 200 nM
IC50 (IDO [2]): 50 nM
SMILES: COc1ccc(-c2ccc(Oc3cccc4c3CCCC4)c(NC(=O)Nc3ccccc3C)c2)cc1C(=O)O [Example 115, 4-methoxy-4′-(5,6,7,8-tetrahydronaphthalen-1-yloxy)-3′-(3-o-tolylureido)biphenyl-3-carboxylic acid]

IC50 (Human IDO1): 260 nM
IC50 (IDO [1]): 430 nM
IC50 (IDO [2]): 80 nM
SMILES: COc1ccc(-c2ccc(Oc3cccc(C)c3C)c(NC(=O)Nc3ccccc3Cl)c2)cc1C(=O)O [Example 120, 3′-(3-(2-chlorophenyl)ureido)-4′-(2,3-dimethylphenoxy)-4-methoxybiphenyl-3-carboxylic acid]

IC50 (Human IDO1): 290 nM
IC50 (IDO [1]): 300 nM
IC50 (IDO [2]): 70 nM
SMILES: COc1ccc(-c2ccc(Oc3cccc4ccccc34)c(NC(=O)Nc3ccccc3C)c2)cc1C(=O)O [Example 129, 4-methoxy-4′-(naphthalen-1-yloxy)-3′-(3-o-tolylureido)biphenyl-3-carboxylic acid]

IC50 (Human IDO1): 70 nM
IC50 (IDO [1]): 140 nM
IC50 (IDO [2]): 20 nM
SMILES: C#CCOc1cccc(Oc2ccc(-c3ccc(OC)c(C(=O)O)c3)cc2NC(=O)Nc2ccccc2Cl)c1C [Example 136, 3′-(3-(2-chlorophenyl)ureido)-4-methoxy-4′-(2-methyl-3-(prop-2-ynyloxy)phenoxy)biphenyl-3-carboxylic acid]

IC50 (Human IDO1): 420 nM
IC50 (IDO [1]): 330 nM
IC50 (IDO [2]): 50 nM
SMILES: C#CCOc1cccc(Oc2ccc(-c3ccc(OC)c(C(=O)O)c3)cc2NC(=O)Nc2ccc(C)cc2)c1C [Example 141, 4-methoxy-4′-(2-methyl-3-(prop-2-ynyloxy)phenoxy)-3′-(3-p-tolylureido)biphenyl-3-carboxylic acid]

IC50 (Human IDO1): 380 nM
IC50 (IDO [1]): 160 nM
IC50 (IDO [2]): 40 nM
SMILES: COc1ccc(-c2ccc(Oc3cccc4c3CCC4)c(NC(=O)Nc3ccccc3Cl)c2)cc1C(=O)O [Example 142, 3′-(3-(2-chlorophenyl)ureido)-4′-(2,3-dihydro-1H-inden-4-yloxy)-4-methoxybiphenyl-3-carboxylic acid]

IC50 (Human IDO1): 530 nM
IC50 (IDO [1]): 200 nM
IC50 (IDO [2]): 50 nM
SMILES: COc1ccc(-c2ccc(Oc3cccc4c3CCC4)c(NC(=O)Nc3ccccc3C)c2)cc1C(=O)O [Example 143, 4′-(2,3-dihydro-1H-inden-4-yloxy)-4-methoxy-3′-(3-o-tolylureido)biphenyl-3-carboxylic acid]

IC50 (Human IDO1): 450 nM
IC50 (IDO [1]): 290 nM
IC50 (IDO [2]): 50 nM
SMILES: COc1ccc(-c2ccc(Oc3cccc4c3CCCC4)c(NC(=O)Nc3ccccc3F)c2)cc1C(=O)O [Example 152, 3′-(3-(2-fluorophenyl)ureido)-4-methoxy-4′-(5,6,7,8-tetrahydronaphthalen-1-yloxy)biphenyl-3-carboxylic acid]

Reference: US9765018B2, “IDO inhibitors” (BRISTOL-MYERS SQUIBB COMPANY, priority 2013, dated 2017)
